Assays:
Aβ42 = experiment: Amyloidβ peptide release (Aβ42) assay, AlphaLisa on supernatant of APPswe-HEK cells; assay type: cell-based; conditions: Homo sapiens, 24 hours incubation with compound, read-out: Ab42 IC50 Ranges
Description: (§1) Amyloidβ Peptide Release (Aβ42 & AβTotal) Assay to Determine IC50 Values.
(§2) Amyloidβ peptide release (Aβ42 & AβTotal) assay are performed in 384 well microtiter plates (Perkin Elmer AlphaPlate #6008350) in a final volume of 20 μl, using supernatant coming from APPswe-HEK cells exposed to test compounds. Compounds are dissolved in and diluted in 100% DMSO and incubated with APPswe-HEK cells for 24 hours a 37° C. in 5% CO2. The supernatant from APPswe-HEK cells are mixed with antibodies: for Aβ42 detection: AlphaLisa Amyloid β 1-42 Kit (Perkin Elmer AL203L) Anti-Amyloid β1-42-specific antibody acceptor beads, biotinylated anti-Amyloid “β1-42” antibody and streptavidin (SA) donor beads diluted in AlphaLisa buffer (to the instructions of the supplier). For Aβ total detection: Custom Anti-Amyloid βtotal acceptor beads (6E10 acceptor beads), biotinylated anti-Amyloid “β1-42” antibody (Perkin Elmer AL203L) and streptavidin (SA) donor beads diluted in AlphaLisa buffer (to the instructions of the supplier). After addition of supernatant to the antibody mix, the assay is incubated 4 h and 30 minutes. AmyloidP peptide release (Aβ42 & AβTotal) is measured with a Pherastar FS (BMG) multimode reader using the alphascreen module.

AβTotal = experiment: Amyloidβ peptide release (AβTotal) assay, AlphaLisa on supernatant of APPswe-HEK cells; assay type: cell-based, human; conditions: 24 hours, ratio Abtot versus Ab42
Description: as §1, §2

Compound | IC50 (Aβ42) [nM] | Abtot/Ab42 selectivity ranges (AβTotal)
Cc1cc(-c2ccc(NC(=O)c3nnn4c3CCCC4c3ccc(F)cc3)cc2)ccn1 (stereo not drawn) [Example 21, 7-(4-fluorophenyl)-N-(4-(2-methylpyridin-4-yl)phenyl)-4,5,6,7-tetrahydro-[1,2,3]triazolo[1,5-a]pyridine-3-carboxamide] | < 1000 | d (d: 10 fold > selectivity)
COc1cc(NC(=O)c2nnn3c2CCCC3c2cccc(C(F)(F)F)c2)ccc1-n1cnc(C)c1 (stereo not drawn) [Example 22, N-(3-methoxy-4-(4-methyl-1H-imidazol-1-yl)phenyl)-7-(3-(trifluoromethyl)phenyl)-4,5,6,7-tetrahydro-[1,2,3]triazolo[1,5-a]pyridine-3-carboxamide] | 150 to 500 | b (b: 100 fold > selectivity ≧ 50 fold)
COc1cc(NC(=O)c2nnn3c2CCC[C@@H]3c2ccc(Cl)cc2)ccc1-n1cnc(C)c1 [Example 23, (R)-7-(4-chlorophenyl)-N-(3-methoxy-4-(4-methyl-1H-imidazol-1-yl)phenyl)-4,5,6,7-tetrahydro-[1,2,3]triazolo[1,5-a]pyridine-3-carboxamide] | ≤ 150 | b (b: 100 fold > selectivity ≧ 50 fold)
COc1cc(NC(=O)c2nnn3c2CCC[C@H]3c2ccc(Cl)cc2)ccc1-n1cnc(C)c1 [Example 24, (S)-7-(4-chlorophenyl)-N-(3-methoxy-4-(4-methyl-1H-imidazol-1-yl)phenyl)-4,5,6,7-tetrahydro-[1,2,3]triazolo[1,5-a]pyridine-3-carboxamide] | 150 to 500 | b (b: 100 fold > selectivity ≧ 50 fold)
COc1cc(NC(=O)c2nnn3c2CCCC3c2ccc(C(F)(F)F)cc2)ccc1-n1cnc(C)c1 (stereo not drawn) [Example 25, N-(3-methoxy-4-(4-methyl-1H-imidazol-1-yl)phenyl)-7-(4-(trifluoromethyl)phenyl)-4,5,6,7-tetrahydro-[1,2,3]triazolo[1,5-a]pyridine-3-carboxamide] | ≤ 150 | c (c: 50 fold > selectivity ≧ 10 fold)
Cc1cn(-c2ccc(NC(=O)c3nnn4c3CCC4c3ccc(Cl)cc3)cc2F)cn1 (stereo not drawn) [Example 26, 6-(4-chlorophenyl)-N-(3-fluoro-4-(4-methyl-1H-imidazol-1-yl)phenyl)-5,6-dihydro-4H-pyrrolo[1,2-c][1,2,3]triazole-3-carboxamide] | 150 to 500 | b (b: 100 fold > selectivity ≧ 50 fold)
Cc1cn(-c2ccc(NC(=O)c3nnn4c3CCC4c3ccc(Cl)cc3)cc2C#N)cn1 (stereo not drawn) [Example 27, 6-(4-chlorophenyl)-N-(3-cyano-4-(4-methyl-1H-imidazol-1-yl)phenyl)-5,6-dihydro-4H-pyrrolo[1,2-c][1,2,3]triazole-3-carboxamide] | 150 to 500 | c (c: 50 fold > selectivity ≧ 10 fold)
COc1cc(NC(=O)c2nnn3c2CCC3c2ccc(Cl)cc2)ccc1-n1cnc(C)c1 (stereo not drawn) [Example 28, 6-(4-chlorophenyl)-N-(3-methoxy-4-(4-methyl-1H-imidazol-1-yl)phenyl)-5,6-dihydro-4H-pyrrolo[1,2-c][1,2,3]triazole-3-carboxamide] | ≤ 150 | b (b: 100 fold > selectivity ≧ 50 fold)
COc1nc(NC(=O)c2nnn3c2CCC3c2ccc(Cl)cc2)ccc1-n1cnc(C)c1 (stereo not drawn) [Example 29, 6-(4-chlorophenyl)-N-(6-methoxy-5-(4-methyl-1H-imidazol-1-yl)pyridin-2-yl)-5,6-dihydro-4H-pyrrolo[1,2-c][1,2,3]triazole-3-carboxamide] | < 1000 | a (a: selectivity ≧ 100 fold)
COc1cc(NC(=O)c2nnn3c2CC[C@@H]3c2ccc(Cl)cc2)ccc1-n1cnc(C)c1 [Example 30, (R)-6-(4-chlorophenyl)-N-(3-methoxy-4-(4-methyl-1H-imidazol-1-yl)phenyl)-5,6-dihydro-4H-pyrrolo[1,2-c][1,2,3]triazole-3-carboxamide] | ≤ 150 | b (b: 100 fold > selectivity ≧ 50 fold)
COc1cc(NC(=O)c2nnn3c2CC[C@H]3c2ccc(Cl)cc2)ccc1-n1cnc(C)c1 [Example 31, (S)-6-(4-chlorophenyl)-N-(3-methoxy-4-(4-methyl-1H-imidazol-1-yl)phenyl)-5,6-dihydro-4H-pyrrolo[1,2-c][1,2,3]triazole-3-carboxamide] | 150 to 500 | c (c: 50 fold > selectivity ≧ 10 fold)
COc1cc(NC(=O)c2nnn3c2CCC3c2ccccc2Cl)ccc1-n1cnc(C)c1 (stereo not drawn) [Example 32, 6-(2-chlorophenyl)-N-(3-methoxy-4-(4-methyl-1H-imidazol-1-yl)phenyl)-5,6-dihydro-4H-pyrrolo[1,2-c][1,2,3]triazole-3-carboxamide] | ≤ 150 | b (b: 100 fold > selectivity ≧ 50 fold)
COc1cc(NC(=O)c2nnn3c2CCC3c2ccccc2Cl)ccc1-c1cnn(C)c1 (stereo not drawn) [Example 33, 6-(2-chlorophenyl)-N-(3-methoxy-4-(1-methyl-1H-pyrazol-4-yl)phenyl)-5,6-dihydro-4H-pyrrolo[1,2-c][1,2,3]triazole-3-carboxamide] | 500 to 1000 | c (c: 50 fold > selectivity ≧ 10 fold)
COc1cc(NC(=O)c2nnn3c2CCC3c2ccc(Cl)c(Cl)c2)ccc1-n1cnc(C)c1 (stereo not drawn) [Example 34, 6-(3,4-dichlorophenyl)-N-(3-methoxy-4-(4-methyl-1H-imidazol-1-yl)phenyl)-5,6-dihydro-4H-pyrrolo[1,2-c][1,2,3]triazole-3-carboxamide] | ≤ 150 | a (a: selectivity ≧ 100 fold)
COc1cc(NC(=O)c2nnn3c2CCC3c2ccc(Cl)c(Cl)c2)ccc1-c1cnn(C)c1 (stereo not drawn) [Example 35, 6-(3,4-dichlorophenyl)-N-(3-methoxy-4-(1-methyl-1H-pyrazol-4-yl)phenyl)-5,6-dihydro-4H-pyrrolo[1,2-c][1,2,3]triazole-3-carboxamide] | 150 to 500 | c (c: 50 fold > selectivity ≧ 10 fold)
COc1cc(NC(=O)c2nnn3c2CCC3c2ccc(F)cc2)ccc1-n1cnc(C)c1 (stereo not drawn) [Example 36, 6-(4-fluorophenyl)-N-(3-methoxy-4-(4-methyl-1H-imidazol-1-yl)phenyl)-5,6-dihydro-4H-pyrrolo[1,2-c][1,2,3]triazole-3-carboxamide] | 150 to 500 | b (b: 100 fold > selectivity ≧ 50 fold)
COc1cc(NC(=O)c2nnn3c2CCC3c2ccc(F)cc2)ccc1-c1cnn(C)c1 (stereo not drawn) [Example 37, 6-(4-fluorophenyl)-N-(3-methoxy-4-(1-methyl-1H-pyrazol-4-yl)phenyl)-5,6-dihydro-4H-pyrrolo[1,2-c][1,2,3]triazole-3-carboxamide] | < 1000 | c (c: 50 fold > selectivity ≧ 10 fold)
COc1cc(NC(=O)c2nnn3c2COCC3c2ccc(Cl)cc2)ccc1-n1cnc(C)c1 (stereo not drawn) [Example 38, 7-(4-chlorophenyl)-N-(3-methoxy-4-(4-methyl-1H-imidazol-1-yl)phenyl)-6,7-dihydro-4H-[1,2,3]triazolo[5,1-c][1,4]oxazine-3-carboxamide] | 150 to 500 | b (b: 100 fold > selectivity ≧ 50 fold)
COc1cc(C(=O)Nc2nnn3c2CCCC3c2ccc(F)cc2Cl)ccc1-n1cnc(C)c1 (stereo not drawn) [Example 39, N-(7-(2-chloro-4-fluorophenyl)-4,5,6,7-tetrahydro-[1,2,3]triazolo[1,5-a]pyridin-3-yl)-3-methoxy-4-(4-methyl-1H-imidazol-1-yl)benzamide] | 150 to 500 | b (b: 100 fold > selectivity ≧ 50 fold)
COc1cc(C(=O)Nc2nnn3c2CCCC3c2ccc(Cl)cc2)ccc1-n1cnc(C)c1 (stereo not drawn) [Example 40, N-(7-(4-chlorophenyl)-4,5,6,7-tetrahydro-[1,2,3]triazolo[1,5-a]pyridin-3-yl)-3-methoxy-4-(4-methyl-1H-imidazol-1-yl)benzamide] | 150 to 500 | b (b: 100 fold > selectivity ≧ 50 fold)
COc1cc(C(=O)Nc2nnn3c2CCCC3c2ccc(Cl)c(Cl)c2)ccc1-n1cnc(C)c1 (stereo not drawn) [Example 41, N-(7-(3,4-dichlorophenyl)-4,5,6,7-tetrahydro-[1,2,3]triazolo[1,5-a]pyridin-3-yl)-3-methoxy-4-(4-methyl-1H-imidazol-1-yl)benzamide] | 150 to 500 | b (b: 100 fold > selectivity ≧ 50 fold)
COc1cc(C(=O)Nc2nnn3c2CCCC3c2cccc(C(F)(F)F)c2)ccc1-n1cnc(C)c1 (stereo not drawn) [Example 42, 3-methoxy-4-(4-methyl-1H-imidazol-1-yl)-N-(7-(3-(trifluoromethyl)phenyl)-4,5,6,7-tetrahydro-[1,2,3]triazolo[1,5-a]pyridin-3-yl)benzamide] | 500 to 1000 | c (c: 50 fold > selectivity ≧ 10 fold)
COc1cc(C(=O)Nc2nnn3c2CCCC3c2ccc(F)cc2)ccc1-n1cnc(C)c1 (stereo not drawn) [Example 43, N-(7-(4-fluorophenyl)-4,5,6,7-tetrahydro-[1,2,3]triazolo[1,5-a]pyridin-3-yl)-3-methoxy-4-(4-methyl-1H-imidazol-1-yl)benzamide] | < 1000 | a (a: selectivity ≧ 100 fold)
COc1cc(C(=O)Nc2nnn3c2CCC3c2ccc(Cl)cc2)ccc1-n1cnc(C)c1 (stereo not drawn) [Example 44, N-(6-(4-chlorophenyl)-5,6-dihydro-4H-pyrrolo[1,2-c][1,2,3]triazol-3-yl)-3-methoxy-4-(4-methyl-1H-imidazol-1-yl)benzamide] | 150 to 500 | c (c: 50 fold > selectivity ≧ 10 fold)
